# Experimental data published in patent publication US8853151B2, “Pro-drug complexes and related methods of use” (The Regents of the University of Michigan, priority 2009, dated 2014).
# Where two headings read alike, the source gives them in different places.
# Assays:
# [1] = Solubility of SN-38 pro-drug complex in comparison with SN-38; assay type: physicochemical
# Source text: The solubility of SN-38 pro-drug complex
# [drawing 23] in comparison with SN-38 was investigated.
# [2] = tested on: cervical carcinoma cell line KB; assay: Effect on cell growth with or without recombinant human DT-Diaphorase (DTD) in the growth medium, KB cells; assay type: cell-based
# Source text: (§1) The redox-coupled release of free SN38 from the SN-38 pro-drug complex
# (§2) [drawing 24] using the enzyme DT-Diaphorase (DTD) was investigated. DTD is a cytosolic oxidoreductase which catalyzes the two-electron reduction of quinones using NADH or NADPH as electron donors (see, e.g., Phillips et al, Biochemical Pharmacology 68: 2107-2116 (2004); herein incorporated by reference in its entirety). As the DTD-induced reduction of quinones is known to take place even under normoxic conditions, the enzyme is used as a positive control for testing the release of drugs from quinone-linked drugs. Synthesized SN-38 pro-drug complex was incubated with recombinant human DTD (Sigma) added into the cell growth medium in the presence of different concentration of the SN-38 pro-drug complex. The effect of the drug on cell growth was determined in two different human cell lines, the cervical carcinoma cell line KB, and the breast cancer cell line SKBR3.
# [3] = tested on: breast cancer cell line SKBR3; assay: Effect on cell growth with or without recombinant human DT-Diaphorase (DTD) in the growth medium, SKBR3 cells; assay type: cell-based
# Source text: as §1, §2
# [4] = absence of DTD, up to 300 nM prodrug
Compound,solubility ([1]; water),"solubility ([1]; in water, read-out: solubility)",solubility compared with SN38 ([1]; ratio pro-drug complex / SN38),"cytotoxicity [2, 4]",cytotoxicity on redox mediated activation (FIG. 8) ([2]; redox mediated activation),"cytotoxicity [3, 4]",cytotoxicity on redox-mediated activation (FIG. 9) ([3]; redox-mediated activation)
"CCc1c2c(nc3ccc(O)cc13)-c1cc3c(c(=O)n1C2)COC(=O)[C@]3(O)CC [SN38, 7-Ethyl-10-hydroxy-camptothecin, reference compound]",~2 µg/mL,,,,,,
CCc1c2c(nc3ccc(OC(=O)N(C)CCN(C)C(=O)OCc4c5c(n(CC(=O)NCCOCCOCCOCCn6cc(CCC(=O)CCCC(=O)NCCCCC7NC(=O)[C@@H](Cc8ccc(O)cc8)NC(=O)[C@H](CC(=O)O)NC(=O)CNC(=O)[C@H](CCCNC(=N)N)NC7=O)nn6)c4C)C(=O)C=C(OC)C5=O)cc13)-c1cc3c(c(=O)n1C2)COC(=O)[C@]3(O)CC (stereo partly shown) [SN-38 pro-drug complex],,100 µg/mL,>= 50 times,essentially non-cytotoxic,leads to KB cell cytotoxicity,essentially non-cytotoxic,leads to SKBR3 cell cytotoxicity
